One test relates to colon carcinomas. The test is described as follows: Chemically induced (DMH/DSS) colon carcinomas in mice. The class given is in vivo. The note with it: DMH/DSS-induced tumour genesis; 4.46 mg/g of feed (approx. 600 mg/kg) for 20 days, one week after the treatment; vs placebo. As for the experimental part: To this end, colon tumours were induced chemically in the experimental animals (Wang J G, Wang D F, Lv B J, Si J M: A novel mouse model for colitis-associated colon carcinogenesis induced by 1,2-dimethylhydrazine and dextran sulfate sodium. World J Gastroenterol 2004; 10:2958-2962). Some of the experimental animals were subjected to three cycles of chemical tumour genesis at an age of 8 weeks. To this end, the animals were treated intraperitoneally with 20 mg/kg of 1,2-dimethylhydrazine (DMH; Sigma-Aldrich Corporation. St. Louis. Mo. USA). Starting one week later, distilled water containing 30 g/l of synthetic dextran sulfate sodium (DSS; molecular weight 5000; Wako Pure Chemical Industries Ltd. Japan) was administered to the animals three times for 7 days and distilled water was administered for a further 14 days (total duration 3×(1+2 weeks)=9 weeks in total). The remainder of the experimental animals (control animals) were instead supplied intraperitoneally by injection with 20 mg/kg of a 0.9% sodium chloride solution. All mice were anaesthetised with ether at the age of 22 weeks and subsequently killed.
One week after the treatment, either a placebo or the SGK1 inhibitor was administered for 20 days. The SGK1 inhibitor had been added to the feed in a mixing ratio of 4.46 mg/g of feed. This corresponds to an approximate dose of 600 mg/kg of body weight.

A further test deals with LCMV. Also on record: species or system mice. To be noted: mouse, in vivo.
In a further test the target is T1, SGK1 protein kinase (Homo sapiens, UniProt O00141).
T1 sequence (O00141 1-431): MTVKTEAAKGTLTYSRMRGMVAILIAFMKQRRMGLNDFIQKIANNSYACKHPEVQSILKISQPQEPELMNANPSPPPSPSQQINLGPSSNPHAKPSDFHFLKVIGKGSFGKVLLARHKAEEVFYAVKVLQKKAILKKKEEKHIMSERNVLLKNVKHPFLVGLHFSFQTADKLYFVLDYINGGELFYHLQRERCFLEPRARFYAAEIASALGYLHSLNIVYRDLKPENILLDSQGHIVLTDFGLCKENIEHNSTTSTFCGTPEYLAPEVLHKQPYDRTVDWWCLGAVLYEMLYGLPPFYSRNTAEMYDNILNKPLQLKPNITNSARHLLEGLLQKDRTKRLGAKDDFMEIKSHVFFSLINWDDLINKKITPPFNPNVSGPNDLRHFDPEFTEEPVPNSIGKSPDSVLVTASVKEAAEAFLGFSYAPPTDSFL
Briefly: SGK1 protein kinase inhibition, filter binding method. The class given is biochemical. The note with it: read-out: SGK1 enzyme inhibition IC50. From the text:
Further assays are known from the literature and could easily be carried out by the person skilled in the art (see, for example, Dhanabal et al., Cancer Res. 59:189-197; Xin et al., J. Biol. Chem. 274:9116-9121; Sheu et al., Anticancer Res. 18:4435-4441; Ausprunk et al., Dev. Biol. 38:237-248; Gimbrone et al., J. Natl. Cancer Inst. 52:413-427; Nicosia et al., In Vitro 18:538-549).
The inhibition of SGK1 protein kinase can be determined in the filter binding method.

pIC50: −log10 of the molar value. A value given as a limit tells only on which side of the number the result lay.

The record followed here is US8546613B2, “SGK1 inhibitors for the prophylaxis and/or therapy of viral diseases and/or carcinomas” (priority 2008, dated 2013).

Usually pIC50 stands for the negative decadic logarithm of the IC50, by convention in mol/L. Consider `CCc1c(C(=O)NNC(=O)C(O)c2cc(F)cc(F)c2)ccc(O)c1C` (racemic) [I, N′-[2-(3,5-Difluorophenyl)-2-hydroxyacetyl]-2-ethyl-4-hydroxy-3-methylbenzohydrazide], for which, in the test with colon carcinomas, the “growth of colon tumours” value is “significantly inhibited”. Further, in the test with LCMV, the bilirubin concentration result was “significantly reduced” and the “concentration of alanine aminotransferase” value was “significantly reduced”. Besides, the pIC50 at SGK1 protein kinase was less than 6.52.
On to `CCc1c(C(=O)NNC(=O)[C@@H](O)c2cc(F)cc(F)c2)ccc(O)c1C` [Ia, N′-[(S)-2-(3,5-Difluorophenyl)-2-hydroxyacetyl]-2-ethyl-4-hydroxy-3-methylbenzohydrazide], for which the pIC50 on SGK1 protein kinase was less than 6.52.
